The text below walks through data of PubChem BioAssay (NCI).

Several values for one entry are separate records, joined by “and”; a condition that tells them apart may be missing. Equal entries are not always repeated.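 Five concentrations, 48 hours, 96-well plates. GI50 is the concentration that inhibits growth by half. TGI marks complete inhibition of growth.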

Test in all cases: NCI-60 cell line screen, 48 h
Assay [1] has as its system CCRF-CEM leukemia.
Assay [2] has as its system SF-268 CNS.
The test system of assay [3] is SF-539 CNS.
Assay [4] concerns SK-OV-3 ovarian.
The subject of assay [5] is UO-31 renal.
In assay [6] the test system is CAKI-1 renal.
Assay [7] has as its system TK-10 renal.
Assay [8] has as its system U251 CNS.
Assay [9] relates to SK-MEL-28 melanoma.
In assay [10] the test system is OVCAR-3 ovarian.

Turning to `CCOC(=O)c1sc2c(C(=O)OCC)n3cc(C)cc(C)c3c2c1O`, the TGI in [1], in [2], in assay [3], in [4], in assay [5] and in assay [6] was more than 100 µM in each case. Besides, the TGI in assay [7], in assay [8], in [9] and in assay [10] was more than 100 µM each time.
Consider `COc1cc(/C=C/C(=O)CC(=O)/C=C/c2cc(OC)c(O)c(OC)c2)cc(OC)c1O`, for which the GI50 was 4.01 µM in assay [1]; 9.06 µM in assay [2]; 44.2 µM in [3]; 32 µM in assay [4]; 41.2 µM in [5]; 21.1 µM in assay [6]. Also, the GI50 is 34.2 µM in [7], 14.1 µM in assay [9] and 18.6 µM in assay [10]. Besides, the TGI in assay [1] is > 25 µM and 64.8 µM; in assay [2], 15.4 µM and 41.2 µM; in assay [3] it was 25 µM and > 100 µM; in assay [4] it was 24 µM and > 100 µM; in assay [5], more than 100 µM; in [6] it was 25 µM and > 100 µM. Also, the TGI in [7] was 25 µM and > 100 µM; in assay [8], 25 µM and 36.1 µM; in [9], 21.5 µM and 57.8 µM; in assay [10], 17.3 µM and > 100 µM.
For `CN(C)CCN1C(=O)c2cccc3c(/C=C/CN4C(=O)c5cccc6cccc(c56)C4=O)ccc(c23)C1=O`, the GI50 in assay [1] is 0.339 µM; in [2], 51.5 µM; in assay [3], 6.33 µM; in assay [4], more than 100 µM; in assay [5], 17.4 µM; in assay [6], 13.4 µM. Further, the GI50 was 34.7 µM in assay [7], 46.5 µM in [8], 0.766 µM in assay [9] and more than 100 µM in [10]. Besides, the TGI in assay [1] is 69.9 µM; in assay [2] it was more than 100 µM; in assay [3], 19.5 µM; in [4] it was more than 100 µM; in [5], 48.2 µM; in [6] it was 28.6 µM. Further, the TGI in [7] is 82.8 µM; in [8], more than 100 µM; in assay [9], 4.71 µM; in [10], more than 100 µM.
In the case of `COC(=O)CC1(O)C=CC(=O)C=C1`, the TGI was 6.11 µM in assay [1]; 14.8 µM in [2]; 12.8 µM in assay [3]; 29.6 µM in assay [4]; 9.93 µM in [5]; 11.6 µM in assay [6]. Further, the TGI in [7] came to 16 µM; in [8], 18.5 µM; in assay [9], 7.47 µM; in assay [10], 13.7 µM.
As to `CCCC(O)c1cn(-c2cccc(S(=O)(=O)O)c2)nn1` (stereo not drawn), the TGI in assay [1], in assay [2], in assay [3], in assay [4], in assay [5] and in assay [6] was more than 100 µM each time. The TGI in assay [7], in assay [8], in [9] and in [10] was more than 100 µM each time.
As for `CS(=O)(=O)c1ccc(COP(N)(=O)N(CCCl)CCCl)cc1` (stereo not drawn), the TGI in [1], in assay [2], in assay [3], in assay [4], in assay [5] and in [6] was more than 100 µM in each case. Besides, the TGI in assay [7], in assay [8], in assay [9] and in assay [10] was more than 100 µM each time.
Take `FC(F)c1ncc(-c2ccc(C(F)(F)F)cc2)c(NC2CCCCCC2)n1`: the GI50 in assay [1], in assay [2], in assay [3], in [4], in assay [5] and in assay [6] was more than 10 µM in each case. In addition, the GI50 in assay [7], in [8], in assay [9] and in assay [10] was more than 10 µM each time. The TGI in assay [1], in [2], in assay [3], in [4], in assay [5] and in assay [6] was more than 10 µM throughout. Also, the TGI in [7], in assay [8], in assay [9] and in assay [10] was more than 10 µM each time.
Regarding `CCCCC#Cc1c(I)n(C2OC(CO[Si](C)(C)C(C)(C)C)C3OC(C)(C)OC32)c(=O)n(C(=O)c2ccccc2)c1=O` (stereo not drawn), the GI50 in assay [1] was 13.4 µM; in assay [2], 2.06 µM; in assay [3], 3.54 µM; in assay [4] it was 14.8 µM; in assay [5] it was 1.97 µM; in [6], 3.67 µM. The GI50 in assay [7] was 1.78 µM; in assay [8], 3.25 µM; in assay [9], 6.94 µM; in assay [10], 1.47 µM. For the same molecule, the TGI in [1] worked out at 33.4 µM; in assay [2] it was 4.85 µM; in [3], 12.8 µM; in [4], 27.9 µM; in assay [5], 7.51 µM; in [6], 18.4 µM. Besides, the TGI is 3.19 µM in assay [7], more than 100 µM in [8], 22.5 µM in assay [9] and 2.82 µM in [10].
Consider `Cc1cc(=O)[nH]c(NNC(C#N)c2ccccc2O)n1` (stereo not drawn), for which the TGI in assay [1] is more than 100 µM; in [2] it was more than 100 µM; in assay [3], more than 100 µM; in [4], more than 100 µM; in assay [5] it was 56.8 µM; in assay [6] it was 93.6 µM. Also, the TGI in assay [7], in assay [8], in assay [9] and in assay [10] was more than 100 µM in each case.
`OCCCCC#Cc1ccccc1C#Cc1cccnc1`: the GI50 in assay [1] was 33.9 µM; in assay [2] it was 40.3 µM; in assay [3], 43 µM; in [4], 57.3 µM; in [5] it was 25.2 µM; in assay [6], 29.1 µM. Also, the GI50 was 26.9 µM in assay [7], 20.3 µM in [8], 23.7 µM in assay [9] and 32.9 µM in assay [10]. Also, the TGI in assay [1] is more than 100 µM; in assay [2], more than 100 µM; in assay [3], more than 100 µM; in assay [4] it was more than 100 µM; in assay [5], 90.4 µM; in assay [6], 83.5 µM. The TGI in [7] was 80.6 µM; in assay [8], 78.6 µM; in assay [9] it was more than 100 µM; in assay [10], more than 100 µM.
Regarding `Nc1c(C(=O)c2cccc(C(O)CO)c2)cnn1-c1ccc(F)cc1` (stereo not drawn), the GI50 in assay [1], in assay [2], in assay [3], in [4], in assay [5] and in [6] was more than 25 µM in each case. Further, the GI50 in [7], in assay [8], in [9] and in assay [10] was more than 25 µM in each case. Further, the TGI in assay [1], in assay [2], in assay [3], in assay [4], in assay [5] and in assay [6] was more than 25 µM in each case. For the same molecule, the TGI in assay [7], in [8], in [9] and in [10] was more than 25 µM throughout.
`COc1ccc2nc(C)cc(Sc3nc4ccccc4s3)c2c1`: the GI50 was 0.377 µM in [1]; 2.02 µM in assay [2]; 1.73 µM in assay [3]; 1.19 µM in [4]; 0.385 µM in assay [5]; 1.4 µM in [7]. For the same molecule, the GI50 in assay [8] is 1 µM; in assay [9], 2.45 µM; in assay [10] it was 1.47 µM. The TGI was determined as 2.65 µM in assay [1]; 5.51 µM in assay [2]; 4.04 µM in [3]; 4.75 µM in assay [4]; 5.43 µM in [5]; 0.626 µM in assay [6]. The TGI stood at 5.47 µM in assay [7], 3.06 µM in assay [8], 9.89 µM in assay [9] and 3.3 µM in assay [10].
As for `Cc1nn(C)c2ncnc(N/N=C/c3cccc(O)c3O)c12`, the GI50 in [1] was 0.179 µM; in assay [2], 0.342 µM; in assay [3], 0.371 µM; in [4], 2.24 µM; in assay [5] it was 0.251 µM; in assay [6], 1.31 µM. The GI50 is 2.64 µM in assay [7], 0.513 µM in assay [8], 0.455 µM in assay [9] and 0.356 µM in assay [10]. The TGI in assay [1] was more than 52.8 µM; in [2] it was 20.4 µM; in assay [3], 7.1 µM; in [4], more than 81 µM; in assay [5], 2.19 µM; in assay [6] it was 16.5 µM. Besides, the TGI in [7], in assay [8], in assay [9] and in assay [10] was more than 100 µM in each case.
For `O=C1NC(=O)C(=Cc2cn(Cc3ccccc3)c3ccccc23)C(=O)N1`, the GI50 in assay [1] was 20.5 µM; in assay [2] it was 15.8 µM; in [3], 34.3 µM; in [4], 6.3 µM; in [5], 12 µM; in [6], 2.15 µM. In addition, the GI50 is 2.16 µM in assay [7], 12.8 µM in assay [8], 15 µM in assay [9] and 5.75 µM in assay [10]. Besides, the TGI in assay [1] is more than 67.2 µM; in assay [2], 32.9 µM; in assay [3], more than 100 µM; in assay [4], 29 µM; in assay [5], 31 µM; in assay [6] it was 10.5 µM. The TGI in assay [7] is 8.58 µM; in assay [8], 28.9 µM; in [9], 30.6 µM; in assay [10], 19.4 µM.
Consider `COC1=C(OC)C(=O)C(C/C=C(\C)CC/C=C(\C)CC/C=C(\C)CC/C=C(\C)CC/C=C(\C)CC/C=C(\C)CC/C=C(\C)CC/C=C(\C)CC/C=C(\C)CCC=C(C)C)=C(C)C1=O`, for which the GI50 in assay [1], in assay [2], in [3], in assay [4], in assay [5] and in assay [6] was more than 100 µM throughout. In addition, the GI50 in [7], in [8], in assay [9] and in assay [10] was more than 100 µM each time. For the same molecule, the TGI in assay [1], in assay [2], in [3], in [4], in assay [5] and in assay [6] was more than 100 µM each time. In addition, the TGI in assay [7], in assay [8], in assay [9] and in [10] was more than 100 µM throughout.
Regarding `CN1CCN=C1c1nnn(-c2ccc([N+](=O)[O-])cc2)c1-c1ccccc1`, the TGI is 59 µM in assay [1]; more than 100 µM in [2]; more than 100 µM in assay [3]; more than 100 µM in assay [4]; more than 100 µM in assay [5]; more than 100 µM in assay [6]. Further, the TGI in assay [7], in assay [8], in assay [9] and in [10] was more than 100 µM each time.
`CCC(C)(O)c1cn(-c2ccc(Cl)cc2)nn1` (stereo not drawn): the TGI in assay [1], in assay [2], in assay [3], in [4], in assay [5] and in [6] was more than 100 µM in each case. For the same molecule, the TGI in [7], in assay [8], in assay [9] and in assay [10] was more than 100 µM each time.
`O=C1C(Cl)=C(Cl)C(=O)N1c1ccc(Cl)c(Cl)c1Cl`: the TGI in assay [1] is 45.6 µM; in assay [2], more than 100 µM; in assay [3], more than 100 µM; in assay [4], more than 100 µM; in assay [5], more than 100 µM; in [6] it was 56.2 µM. For the same molecule, the TGI in [7], in [8], in [9] and in [10] was more than 100 µM throughout.
As to `COc1c(OC)c(OC)c2c(=O)cc(-c3ccc(OC(C)C)cc3)oc2c1OC`, the TGI in assay [1] is more than 68.5 µM; in [2], more than 51.8 µM; in assay [3], 51.2 µM; in assay [4], more than 50.5 µM; in [5], more than 47.3 µM; in assay [6], 35.1 µM. The TGI is more than 53.9 µM in [7], more than 52 µM in assay [8], more than 55.4 µM in assay [9] and 44.6 µM in assay [10].
